Data: ChEMBL document CHEMBL1151836, “Citronamides A and B, tetrapeptides from the Australian sponge Citronia astra” (J Nat Prod, 2009)
≈ marks a conversion by molar mass, not a printed value. Calls of active or inactive are those of the source. The calls are words filed in the database; no cut-off is given here.

How the values were obtained:
HEK293 = assay: Cytotoxicity against HEK293 cells upto 120 uM after 72 hrs by alamar blue assay; assay type: cell-based; details: human, hek293, 72 h
Trypanosoma brucei = assay: Antitrypanosomal activity against Trypanosoma brucei BS427 upto 120 uM after 48 hrs by alamar blue assay; assay type: functional, organism-based
Saccharomyces cerevisiae = assay: Antibacterial activity against Saccharomyces cerevisiae after 19 to 20 hrs by agar hole punch diffusion assay; assay type: functional
Staphylococcus = assay: Antibacterial activity against Staphylococcus albus epidermis strain at 800 ug/mL after 19 to 20 hrs by agar hole punch diffusion assay; assay type: functional, organism-based
Plasmodium falciparum = assay: Antimalarial activity against chloroquine-resistant Plasmodium falciparum Dd2 at 120 uM after 72 hrs by DAPI stain; assay type: functional
Escherichia coli = assay: Antibacterial activity against Escherichia coli K-12 after 19 to 20 hrs by agar hole punch diffusion assay; assay type: functional
HeLa = assay: Cytotoxicity against human HeLa cells upto 120 uM after 72 hrs by alamar blue assay; assay type: functional, cell-based

CC[C@@H](C)[C@@H](NC(=O)[C@@H](NC(=O)[C@H](NC(=O)CCCCC(N)Cc1ccc(OC)cc1)[C@@H](O[C@@H]1O[C@@H](C(=O)O)[C@@H](O)[C@H](OC(N)=O)[C@H]1O)c1c[nH]c(=O)[nH]1)[C@@H](C)CC)C(=O)O (some centres not stated) [CITRONAMIDE A]
Activity (HEK293): Not Active | Activity (Trypanosoma brucei): inactive | MIC (Saccharomyces cerevisiae): 8 µg/mL (≈ 9.24 µM) | Activity (Staphylococcus): inactive | Activity (Plasmodium falciparum): 24% | MIC (Escherichia coli): 80 µg/mL (≈ 92.4 µM) | Activity (HeLa): inactive
